Assay [1] deals with A. baumannii LMG01041. It is filed as cell-based, Acinetobacter baumannii. To be noted: for MICb: MIC of GNP alone; for MICbc: MIC of GNP when used with the MICac concentration of nisin; for MICac: MIC of nisin in combination with the GNP at the MICbc concentration. The text has this:
(§1) The test of synergistic effect was processed by conducting standard chequerboard broth microdilution assays. Nisin (Drug X) was loaded two fold serially diluted from row 1 to 10 in X-axis while GNPs (Drug Y) were loaded in eight two fold serially diluted concentrations from line A to H in Y-axis (FIG. 1). The original concentrations of peptides were MICs of each. Row 11 are used as growth control with no peptide was included, while row 12 with MHB medium-only wells was included as a sterility control as referred before. 50 uL fresh bacterial suspension was added to well 1-11 and final volume of each well on the plate is 100 uL.
(§2) To determine whether the combination therapy is additive, synergistic or antagonistic, fractional inhibitory concentration (FIC) indices were calculated. FICI=FICa+FICb=MICac/MICa+MICbc/MICb. The MICa/MICb is the MIC of compound A/B alone. MICac is the MIC of compound A in combination with compound B and MICbc is the MIC of compound B when it was combination with compound A. […]. FICa is FIC of compound A while FICb is FIC of compound B. The FICI is interpreted as follows: synergistic, FICI≤0.5; additive, 0.5<FICI<1; indifferent, 1<FICI<2; antagonistic, FICI>2.

For assay [2], the system named is E. aerogenes LMG 02094. It counts as cell-based, Enterobacter aerogenes. To be noted: for MICb: MIC of GNP alone; for MICbc: MIC of GNP when used with the MICac concentration of nisin; for MICac: MIC of nisin in combination with the GNP at the MICbc concentration.
Description: as §1, §2

In assay [3] the test system is P. aeruginosa LMG 6395. It counts as cell-based, Pseudomonas aeruginosa. To be noted: for MICb: MIC of GNP alone; for MICbc: MIC of GNP when used with the MICac concentration of nisin; for MICac: MIC of nisin in combination with the GNP at the MICbc concentration.
Description: as §1, §2

Assay [4] relates to E. coli LMG15862. It counts as cell-based, Escherichia coli. To be noted: for MICb: MIC of GNP alone; for MICbc: MIC of GNP when used with the MICac concentration of nisin; for MICac: MIC of nisin in combination with the GNP at the MICbc concentration.
Description: as §1, §2

The subject of assay [5] is A. baumannii LMG01041. Conditions: for MICb: MIC of GNP alone; for MICbc: MIC of GNP in combination with vancomycin at the MICac concentration; for MICac: MIC of vancomycin in combination with the GNP at the MICbc concentration. The method, then:
(§3) The test of synergistic effect was processed by conducting standard chequerboard broth microdilution assays. […] Row 11 are used as growth control with no peptide was included, while row 12 with MHB medium-only wells was included as a sterility control as referred before. 50 uL fresh bacterial suspension was added to well 1-11 and final volume of each well on the plate is 100 uL.
(§4) The test of synergistic effect was processed as method 1.4.
as §2

The subject of assay [6] is P. aeruginosa LMG 6395. Conditions: for MICb: MIC of GNP alone; for MICbc: MIC of GNP in combination with vancomycin at the MICac concentration; for MICac: MIC of vancomycin in combination with the GNP at the MICbc concentration. Here is the method:
as §3, §4, §2

Assay [7] has as its system E. coli LMG15862. To be noted: for MICb: MIC of GNP alone; for MICbc: MIC of GNP in combination with vancomycin at the MICac concentration; for MICac: MIC of vancomycin in combination with the GNP at the MICbc concentration. The method, then: as §3, §4, §2
In assay [8] the test system is E. aerogenes LMG 02094. Conditions: for MICb: MIC of GNP alone; for MICbc: MIC of GNP in combination with vancomycin at the MICac concentration; for MICac: MIC of vancomycin in combination with the GNP at the MICbc concentration. Here is the method:
as §3, §4, §2

For assay [9], the system named is K. pneumoniae LMG20218. To be noted: for MICb: MIC of GNP alone; for MICbc: MIC of GNP in combination with vancomycin at the MICac concentration; for MICac: MIC of vancomycin in combination with the GNP at the MICbc concentration. Here is the method: as §3, §4, §2
In assay [10] the test system is K. pneumoniae LMG20218. It is filed as cell-based, Klebsiella pneumoniae. Conditions: for MICb: MIC of GNP alone; for MICbc: MIC of GNP when used with the MICac concentration of nisin; for MICac: MIC of nisin in combination with the GNP at the MICbc concentration.
Description: as §1, §2

The test system of assay [11] is E. coli LMG15862. As to the kind of experiment: microbe, parasite or virus in culture. It counts as cell-based, Escherichia coli. Conditions: L-form GNP; E. coli LMG15862; Table 6. Here is the method: (§5) Escherichia coli, Klebsiella pneumoniae, Pseudomonas aeruginosa, Acinetobacter baumannii, Enterobacter aerogenes were grown in Luria-Bertani (LB) broth shaken (200 rpm) or on LB agar at 37° C. […] MICs tests were performed in duplicate by a liquid growth inhibition microdilution assays in sterilized polypropylene microtiter plates according to Wiegand and […] [27]. […] The suspension was diluted in a ratio of 1:100 using Mueller Hinton Broth (MHB) and the final inoculum is 5*10^5 CFU/mL. […] The antimicrobials were diluted serially by 1/2 one by one and 50 uL diluted bacterial suspension were added to each well to make the final volume to be 100 uL. Growth control was accomplished by remove 10 uL from well 11 and dilute 1000 times to plate 1/10 suspension on the solid medium. […] The number of colonies on the control agar plate should be around 50 to ensure the concentration of the inoculum and the effectiveness of the experiment. The lowest concentration of the antimicrobials that inhibits visible growth of the indicator is identified as MIC.

Assay [12] deals with A. baumannii LMG01041. As to the kind of experiment: microbe, parasite or virus in culture. To be noted: LMG01041. It counts as cell-based, Acinetobacter baumannii. The method, then:
as §5

In assay [13] the test system is K. pneumoniae LMG20218. As to the kind of experiment: microbe, parasite or virus in culture. It counts as cell-based, Klebsiella pneumoniae. To be noted: LMG20218. Here is the method: as §5
In assay [14] the test system is E. aerogenes LMG 02094. As to the kind of experiment: microbe, parasite or virus in culture. It is filed as cell-based, Enterobacter aerogenes. To be noted: LMG 02094. Here is the method:
as §5

Assay [15] deals with P. aeruginosa LMG 6395. As to the kind of experiment: microbe, parasite or virus in culture. It counts as cell-based, Pseudomonas aeruginosa. To be noted: LMG 6395. The method, then:
as §5

Where two headings read alike, the source gives them in different places. No end group written: not given here. A value given as a limit tells only on which side of the number the result lay.

For RIVQRIKKWR-NH2 [GNP8-6], the MICb is over 256 µM in assay [1]; over 256 µM in [2]; over 256 µM in [3]; 256 µM in assay [4]; over 256 µM in assay [5]; over 256 µM in assay [6]. In addition, the MICb in assay [7] was 256 µM; in assay [8], over 256 µM; in assay [9], over 256 µM; in assay [10], over 256 µM. For the same substance, the figures for the MICbc in [4] and in assay [7] were 64 µM and 16 µM, respectively. For the same substance, the MICac is 6 µM in [4] and 8 µM in assay [7].

In the case of AIVQRIKKWLR-NH2 [GNP8-3], the MICb in assay [1] was determined as 128 µM; in assay [2], 128 µM; in assay [3], 16 µM; in [4], 12 µM; in assay [5], 128 µM; in assay [6] it was 16 µM. In addition, the MICb in assay [7] worked out at 12 µM; in assay [8], 128 µM; in assay [9], 24 µM; in assay [10], 24 µM. For the same substance, the MICbc in assay [1] turned out to be 32 µM; in [2], 8 µM; in assay [3], 8 µM; in assay [4], 1.5 µM; in assay [5], 8 µM; in assay [6] it was 8 µM. For the same substance, the MICbc in assay [7] was found to be 3 µM; in assay [8] it was 16 µM; in assay [9], 3 µM; in [10], 3 µM. Also, the MICac amounted to 0.375 µM in assay [1]; 4 µM in [2]; 4.5 µM in [3]; 1.5 µM in assay [4]; 4 µM in assay [5]; 4 µM in [6]. In addition, the MICac in assay [7] came to 4 µM; in [8] it was 12 µM; in assay [9], 16 µM; in assay [10] it was 1.5 µM.

Take KIVQRIKKWLR-NH2 [GNP8-2]: the MICb came to 128 µM in assay [1]; 256 µM in assay [2]; 16 µM in [3]; 16 µM in assay [4]; 128 µM in assay [5]; 16 µM in assay [6]. The MICb in assay [7] came out at 16 µM; in assay [8], 256 µM; in [9], 32 µM; in assay [10], 32 µM. For the same substance, the MICbc is 16 µM in assay [1]; 1 µM in [2]; 4 µM in assay [3]; 2 µM in [4]; 4 µM in [5]; 2 µM in [6]. Besides, the MICbc was determined as 2 µM in [7], 16 µM in [8], 8 µM in assay [9] and 2 µM in [10]. In addition, the MICac came to 0.375 µM in assay [1]; 4 µM in [2]; 4.5 µM in assay [3]; 1.5 µM in assay [4]; 4 µM in assay [5]; 16 µM in assay [6]. For the same substance, the MICac in [7] was 4 µM; in [8], 12 µM; in assay [9], 16 µM; in [10] it was 0.75 µM.

As for RIKRRIKKWLR-NH2 [GNP8-5], the MICb was over 256 µM in [1]; over 256 µM in assay [2]; 32 µM in assay [3]; 24 µM in assay [4]; over 256 µM in [5]; 32 µM in assay [6]. Besides, the MICb in assay [7] is 24 µM; in [8], over 256 µM; in assay [9] it was over 256 µM; in assay [10], over 256 µM. The MICbc was 8 µM in assay [3], 3 µM in assay [4], 8 µM in [6] and 3 µM in assay [7]. The MICac stood at 9 µM in [3], 3 µM in assay [4], 16 µM in [6] and 4 µM in assay [7].

As for GNNRPVYIPQPRPPHPRL [GNP-1], the “MICb (GNP concentration when used alone)” value in assay [11] came to 0.5 µM. Further, the “MICb (MIC of GNP alone)” value in assay [12] is over 64 µM; in assay [13] it was 5 µM; in assay [14], 8 µM; in [15] it was over 64 µM.

Take RIRKRIKKWLR-NH2 [GNP8-4]: the MICb in assay [1] is over 256 µM; in assay [2] it was over 256 µM; in [3] it was 16 µM; in assay [4], 16 µM; in [5] it was over 256 µM; in assay [6] it was 16 µM. The MICb in assay [7] is 16 µM; in [8], over 256 µM; in assay [9], over 256 µM; in [10], over 256 µM. The MICbc was 4 µM in [3], 2 µM in [4], 8 µM in [6] and 2 µM in assay [7]. The MICac in [3] came to 2.25 µM; in [4], 3 µM; in assay [6], 4 µM; in [7], 4 µM.

On to RIVQRIKKWL-NH2 [GNP8-1], for which the MICb in [1] was 128 µM; in assay [2], over 256 µM; in [3] it was 16 µM; in [4], 32 µM; in assay [5], 128 µM; in [6], 16 µM. Further, the MICb is 32 µM in [7], over 256 µM in assay [8], 64 µM in assay [9] and 64 µM in [10]. The MICbc worked out at 16 µM in [1]; 4 µM in assay [3]; 4 µM in [4]; 16 µM in [5]; 2 µM in assay [6]; 4 µM in assay [7]. In addition, the MICbc in assay [9] was determined as 8 µM; in assay [10], 1 µM. The MICac in assay [1] is 0.375 µM; in assay [3], 4.5 µM; in [4], 1.5 µM; in assay [5] it was 1 µM; in assay [6], 16 µM; in assay [7] it was 8 µM. In addition, the values for the MICac in assay [9] and in [10] were 16 µM and 3 µM, respectively.
